Patent EP4205753A1, “ANTIVIRAL PLANT EXTRACT COMPOSITION AND METHOD FOR PREPARING SUCH COMPOSITION” (priority 2021, dated 2023)
Like-named read-outs stand apart in the source and are kept apart here.

How the values were obtained:
SARS-CoV-2 [1] = system: SARS-CoV-2
SARS-CoV-2 [2] = assay: microbe, parasite or virus in culture; details: Severe acute respiratory syndrome coronavirus 2, Vero C1008, 55 h, read-out: viability in comparison with non-infected cells

| Structure (SMILES) | cell viability in comparison with non-infected cells (SARS-CoV-2 [1]; 1 µM) [%] | cell viability in comparison with non-infected cells (SARS-CoV-2 [1]; 10 µM) [%] | viability at 25 µM (SARS-CoV-2 [2]) [%] |
| --- | --- | --- | --- |
| C=C[C@H](OC(C)=O)c1ccc(OC(C)=O)cc1 [AAC, acetoxychavicol acetate] | 59 | 66 | – |
| CCC(CC)COC(=O)[C@H](C)N[P@](=O)(OC[C@H]1O[C@@](C#N)(c2ccc3c(N)ncnn23)[C@H](O)[C@@H]1O)Oc1ccccc1 [Remdesivir] | – | – | 97 |
